According to US10196393B2, “JAK inhibitors containing a 4-membered heterocyclic amide” (THERAVANCE BIOPHARMA R&D IP, LLC, priority 2017, dated 2019):

How the values were obtained:
[1] = system: IL-13 induced STAT6 phosphorylation in BEAS-2B human lung epithelial cells; experiment: Cellular JAKI potency assay (AlphaScreen), BEAS-2B; format: cell-based; conditions: Homo sapiens, BEAS-2B cells
Description: Assay 2: Cellular JAKI Potency Assay
The AlphaScreen JAKI cellular potency assay was carried out by measuring interleukin-13 (IL-13, R&D Systems) induced STAT6 phosphorylation in BEAS-2B human lung epithelial cells (ATCC). The anti-STAT6 antibody (Cell Signaling Technologies) was conjugated to AlphaScreen acceptor beads (Perkin Elmer), while the anti-pSTAT6 (pTyr641) antibody (Cell Signaling Technologies) was biotinylated using EZ-Link Sulfo-NHS-Biotin (Thermo Scientific).
BEAS-2B cells were grown at 37° C. in a 5% CO2 humidified incubator in 50% DMEM/50% F-12 medium (Life Technologies) supplemented with 10% FBS (Hyclone), 100 U/mL penicillin, 100 μg/mL streptomycin (Life Technologies), and 2 mM GlutaMAX (Life Technologies). On day 1 of the assay, cells were seeded at a 7,500 cells/well density in white poly-D-lysine-coated 384-well plates (Corning) with 25 μL medium, and were allowed to adhere overnight in the incubator. On day 2 of the assay, the medium was removed and replaced with 12 μL of assay buffer (Hank's Balanced Salt Solution/HBSS, 25 mM HEPES, and 1 mg/ml bovine serum albumin/BSA) containing dose-responses of test compounds. Compounds were serially diluted in DMSO and then diluted another 1000-fold in media to bring the final DMSO concentration to 0.1%. Cells were incubated with test compounds at 37° C. for 1 h, and followed by the addition of 12 μl of pre-warmed IL-13 (80 ng/mL in assay buffer) for stimulation. After incubating at 37° C. for 30 min, the assay buffer (containing compound and IL-13) was removed, and 10 μL of cell lysis buffer (25 mM HEPES, 0.1% SDS, 1% NP-40, 5 mM MgCl2, 1.3 mM EDTA, 1 mM EGTA, and supplement with Complete Ultra mini protease inhibitors and PhosSTOP from Roche Diagnostics). The plates were shaken at ambient temperature for 30 min before the addition of detection reagents. A mixture of biotin-anti-pSTAT6 and anti-STAT6 conjugated acceptor beads was added first and incubated at ambient temperature for 2 h, followed by the addition of streptavidin conjugated donor beads (Perkin Elmer). After a minimum of 2 h incubation, the assay plates were read on the EnVision plate reader. AlphaScreen luminescence signals were recorded and utilized to calculate the percent inhibition values based on DMSO and background controls.
For dose-response analysis, percent inhibition data were plotted vs. compound concentrations, and IC50 values were determined from a 4-parameter robust fit model with the Prism software. Results may also be expressed as the negative logarithm of the IC50 value, pIC50.
Test compounds having a lower IC50 value or higher pIC50 value in this assay show greater inhibition of IL-13 induced STAT6 phosphorylation.

[2] = system: IL-6 stimulated STAT3 phosphorylation in CD3+ T cells; experiment: Cellular JAK potency assay: inhibition of IL-6 stimulated pSTAT3 in CD3+ T cells; format: cell-based; conditions: T-cell; CD3+ T cells in human PBMCs; read-out: pIC50, inhibition of IL-6 stimulated pSTAT3 (converted)
Text: Assay 11: Cellular JAK Potency Assay: Inhibition of IL-6 Stimulated pSTAT3 in CD3+ T Cells
A protocol analogous to that of Assay 10 was used to determine the potency of the test compound for inhibition of interleuken-6 (IL-6) stimulated STAT3 phosphorylation. An Alexa Fluor 647 conjugated anti-pSTAT3 antibody (pY705, Clone 4/P, BD Biosciences) was used to detect STAT3 phosphorylation.

[3] = system: IL-13 induced pSTAT6 induction in lung tissue; experiment: Murine model of IL-13 induced pSTAT6 induction in lung tissue; format: in vivo; conditions: mouse lung, 1 mg/mL 50 μL oral aspiration, IL-13 challenge 4 h after dose, lungs at 5 hours
Text: Assay 4: Murine (Mouse) Model of IL-13 Induced pSTAT6 Induction in Lung Tissue
Il-13 is an important cytokine underlying the pathophysiology of asthma (Kudlacz et al. Eur. J. Pharmacol, 2008, 582,154-161). IL-13 binds to cell surface receptors activating members of the Janus family of kinases (JAK) which then phosphorylate STAT6 and subsequently activates further transcription pathways. In the described model, a dose of IL-13 was delivered locally into the lungs of mice to induce the phosphorylation of STAT6 (pSTAT6) which is then measured as the endpoint.
Adult balb/c mice from Harlan were used in the assay. On the day of study, animals were lightly anesthetized with isoflurane and administered either vehicle or test compound (1 mg/mL, 50 μL total volume over several breaths) via oral aspiration. Animals were placed in lateral recumbency post dose and monitored for full recovery from anesthesia before being returned to their home cage. Four hours later, animals were once again briefly anesthetized and challenged with either vehicle or IL-13 (0.03 μg total dose delivered, 50 μL total volume) via oral aspiration before being monitored for recovery from anesthesia and returned to their home cage. One hour after vehicle or IL-13 administration, lungs were collected for both pSTAT6 detection using an anti-pSTAT6 ELISA (rabbit mAb capture/coating antibody; mouse mAb detection/report antibody: anti-pSTAT6-pY641; secondary antibody: anti-mouse IgG-HRP) and analyzed for total drug concentration as described above in Assay 3.
Selected compounds of the invention were tested in the assay. Activity in the model is evidenced by a decrease in the level of pSTAT6 present in the lungs of treated animals at 5 hours compared to the vehicle treated, IL-13 challenged control animals. The difference between the control animals which were vehicle-treated, IL-13 challenged and the control animals which were vehicle-treated, vehicle challenged dictated the 0% and 100% inhibitory effect, respectively, in any given experiment.

Structure (SMILES): CCc1cc(O)c(F)cc1-c1ccc2c(-c3nc4c([nH]3)CN(C(C)C)[C@H](C(=O)N3CC(N(C)C)C3)C4)n[nH]c2c1 [Example 2, (S)-(3-(dimethylamino)azetidin-1-yl)(2-(6-(2-ethyl-5-fluoro-4-hydroxyphenyl)-1H-indazol-3-yl)-5-isopropyl-4,5,6,7-tetrahydro-3H-imidazo[4,5-c]pyridin-6-yl)methanone]
- IC50 [1]: 4.1 nM
- IC50 [2]: 63.1 nM
- pSTAT6 inhibition Assay 4 [3]: B (B represents between 40% and 60% inhibition)
